According to patent US11053250B2, “Pyrrolo[1,2-b]pyridazine derivatives” (Gilead Sciences, Inc., priority 2018, dated 2021):

Assays:
IRAK4 enzyme = IRAK4 enzyme (Homo sapiens (Human), UniProt Q9NWZ3); experiment: IRAK4 Biochemical Assay (TR-FRET/HTRF); settings: 0.75 nM IRAK4, 500 μM ATP, STK1 peptide
Experimental: IRAK4 enzyme (Carna Biosciences, Chuo-ku, Kobe, Japan) activity was measured by detecting phosphorylated peptide substrate formation using an antibody against the phosphorylated peptide substrate. This is a time-resolved fluorescence resonance energy transfer (TR-FRET) immunoassay, based on the STK1 KinEASE Assay (Cisbio, Bedford, Mass.). The assay was designed as a simple two-step, endpoint assay (a 5 μl enzyme reaction followed by 5 μl stop and detect Solution) performed in ProxiPlate-384 Plus plates (Perkin Elmer, Waltham, Mass.). Staurosporine, a non-selective kinase inhibitor was used as a positive control. Compounds diluted in DMSO were spotted into 384 well plates using a Labcyte® Echo 550 Liquid Handling System prior to addition of IRAK4 enzyme and peptide substrate. Reaction solutions were delivered using a Multi-Flo (Bio-Tek Instruments). The enzyme and peptide solution was incubated with compound for 15 minutes at room temp before the reaction was initiated by the addition of ATP. The standard 5 μl reaction mixture contained 500 μM ATP, 2 μM peptide (STK1 Peptide), 0.75 nM of IRAK4 in reaction buffer (50 mM HEPES, pH 7.0, 0.02% NaN3, 0.01% BSA, 0.1 mM Orthovanadate, 5 mM MgCl2, 0.025% NP-40, 1 mM DTT). After 120 min of incubation at room temperature, 5 μl of Stop and Detect Solution (1:100 Cryptate labeled anti-phosphorylated peptide antibody solution and 125 nM Tracer in a 50 mM HEPES pH 7.0 detection buffer containing sufficient EDTA) was added. The plate was then further incubated for 60 minutes at room temperature and read on Envision 2103 Multilabeled reader (PerkinElmer) with excitation/emission/FRET emission at 340 nm/615 nm/665 nm, respectively. Fluorescence intensities at 615 nm and 665 nm emission wavelengths were expressed as a ratio (665 nm/615 nm). Percentage of inhibition was calculated as below: % Inhibition=100×(RatioSample−Ratio0% Inhibition)/(Ratio100% Inhibition−Ratio0% Inhibition)
The 0% inhibition value comes from control wells lacking inhibitor. The 100% inhibition value comes from control wells containing a saturating amount of known inhibitor staurosporine.

TNFα = experiment: IRAK4 Monocyte TNFα Cell Based Assay; settings: cryopreserved human monocytes, LPS 50 pg/ml stimulation, TNFα by TR-FRET
Experimental: The cell suspension was then plated at a density of 5,000 cells/well onto black 384 well Greiner clear bottom plates. Plates were pre-spotted with test compounds and serially diluted in DMSO where 40 nL/well were delivered using the Echo 550 acoustic liquid dispenser (Labcyte®) for a final DMSO concentration of 0.1%. Plated cells were treated with compound for 1 hour at 37° C. Cells were then stimulated with 50 pg/ml of LPS (Sigma) excluding outside columns of plate used for unstimulated cell control wells. Cells were incubated for an additional 4 hours at 37° C. Cells were then spun out of the media and 5 μl of sample were taken and analyzed for total TNFα content using the TR-FRET Human TNFα detection system (CisBio). This system utilizes two labeled antibodies (cryptate and XL665) that bind to two different epitopes of the TNFα molecule and produce FRET signal proportional to the concentration of TNFα in the sample. Detection antibodies are mixed 50:50 and 5 μL were dispensed into each well. Plates were covered with clear seals and incubated at room temp overnight. The following morning plates were read using an Envision 2103 Multilabeled reader (PerkinElmer) with excitation/emission/FRET emission at 340 nm/615 nm/665 nm, respectively. Fluorescence intensities at 615 nm and 665 nm emission wavelengths were expressed as a ratio (665 nm/615 nm). Percent of control was calculated as follows: % Control=100×(RatioSample−Ratio0% stimulation)/(Ratio100% Stimulation−Ratio0% stimulation) where unstimulated cells (0% stimulation) were the negative control and stimulated cells (100% stimulation) were used as the positive control.

Chain of IRAK4 enzyme (Q9NWZ3 whole entry): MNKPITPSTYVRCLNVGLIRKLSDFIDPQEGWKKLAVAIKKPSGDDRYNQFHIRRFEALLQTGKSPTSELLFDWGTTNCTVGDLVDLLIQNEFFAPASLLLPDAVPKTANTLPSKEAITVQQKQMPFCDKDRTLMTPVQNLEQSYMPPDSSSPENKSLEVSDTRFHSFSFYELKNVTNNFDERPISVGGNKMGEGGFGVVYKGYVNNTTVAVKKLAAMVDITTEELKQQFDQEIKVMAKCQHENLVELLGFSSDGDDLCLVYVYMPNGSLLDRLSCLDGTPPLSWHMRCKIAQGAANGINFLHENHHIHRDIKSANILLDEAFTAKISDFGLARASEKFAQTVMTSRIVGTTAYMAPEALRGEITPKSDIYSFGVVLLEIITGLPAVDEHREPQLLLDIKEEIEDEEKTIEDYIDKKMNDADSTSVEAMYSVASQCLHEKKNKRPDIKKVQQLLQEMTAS

IC50 (IRAK4 enzyme) | EC50 (TNFα) | EC50 (TNFα; Monocyte) | SMILES
0.002 µM | 0.049 µM | – | CNc1cc(-c2ccc3cc(C#N)cnn23)ncc1-c1cn([C@H]2CC[C@H](NC(=O)N3CCOCC3)CC2)nn1 [Compound 18, N-((1r,4r)-4-(4-(6-(3-cyanopyrrolo[1,2-b]pyridazin-7-yl)-4-(methylamino)pyridin-3-yl)-1H-1,2,3-triazol-1-yl)cyclohexyl)morpholine-4-carboxamide]
0.002 µM | – | 0.125 µM | COCCn1cc(-c2cnc(-c3ccc4cc(C#N)cnn34)cc2NC(C)C)nn1 [Compound 48, 7-(4-(isopropylamino)-5-(1-(2-methoxyethyl)-1H-1,2,3-triazol-4-yl)pyridin-2-yl)pyrrolo[1,2-b]pyridazine-3-carbonitrile]
< 0.001 µM | – | 0.009 µM | Cn1cc(-c2cnc(-c3ccc4cc(C#N)cnn34)cc2NC23CCC(O)(CC2)CC3)nn1 [Compound 21, 7-(4-((4-hydroxybicyclo[2.2.2]octan-1-yl)amino)-5-(1-methyl-1H-1,2,3-triazol-4-yl)pyridin-2-yl)pyrrolo[1,2-b]pyridazine-3-carbonitrile]
0.016 µM | – | – | CNc1cc(-c2ccc3cc(C#N)cnn23)ncc1-c1cn([C@H]2CC[C@H](NC(=O)OC(C)(C)C)CC2)nn1 [Compound 23, tert-butyl ((1r,4r)-4-(4-(6-(3-cyanopyrrolo[1,2-b]pyridazin-7-yl)-4-(methylamino)pyridin-3-yl)-1H-1,2,3-triazol-1-yl)cyclohexyl)carbamate]
< 0.001 µM | 0.038 µM | – | COC(=O)NC[C@H]1C[C@H](Nc2cc(-c3ccc4cc(C#N)cnn34)ncc2-c2cn(CC(F)F)nn2)C1 [Compound 32, methyl (((1r,3r)-3-((2-(3-cyanopyrrolo[1,2-b]pyridazin-7-yl)-5-(1-(2,2-difluoroethyl)-1H-1,2,3-triazol-4-yl)pyridin-4-yl)amino)cyclobutyl)methyl)carbamate]
0.009 µM | – | 0.338 µM | CNc1cc(-c2ccc3cc(C#N)cnn23)ncc1-c1cn(CC(F)F)nn1 [Compound 27, 7-(5-(1-(2,2-difluoroethyl)-1H-1,2,3-triazol-4-yl)-4-(methylamino)pyridin-2-yl)pyrrolo[1,2-b]pyridazine-3-carbonitrile]
0.012 µM | – | 1.24 µM | CC(C)Nc1cc(-c2ccc3cc(C#N)cnn23)ncc1-c1cn(C2(C(F)(F)F)CC2)nn1 [Compound 58, 7-(4-(isopropylamino)-5-(1-(1-(trifluoromethyl)cyclopropyl)-1H-1,2,3-triazol-4-yl)pyridin-2-yl)pyrrolo[1,2-b]pyridazine-3-carbonitrile]
– | – | 0.148 µM | CC(=O)N1CCC(c2cn(-c3cnc(-c4ccc5cc(C#N)cnn45)cc3NC(C)C)nn2)CC1 [Compound 63, 7-(5-(4-(1-acetylpiperidin-4-yl)-1H-1,2,3-triazol-1-yl)-4-(isopropylamino)pyridin-2-yl)pyrrolo[1,2-b]pyridazine-3-carbonitrile]
– | – | 0.005 µM | COC(=O)NC[C@H]1C[C@H](Nc2cc(-c3ccc4cc(C#N)cnn34)ncc2-c2cn([C@H]3CC[C@H](NC(=O)N4CCOCC4)CC3)nn2)C1 [Compound 17, methyl (((1R,3r)-3-((2-(3-cyanopyrrolo[1,2-b]pyridazin-7-yl)-5-(1-((1r,4R)-4-(morpholine-4-carboxamido)cyclohexyl)-1H-1,2,3-triazol-4-yl)pyridin-4-yl)amino)cyclobutyl)methyl)carbamate]
– | – | 0.031 µM | CC(C)Nc1cc(-c2ccc3cc(C#N)cnn23)ncc1-n1cc(CCC(C)(C)O)nn1 [Compound 62, 7-(5-(4-(3-hydroxy-3-methylbutyl)-1H-1,2,3-triazol-1-yl)-4-(isopropylamino)pyridin-2-yl)pyrrolo[1,2-b]pyridazine-3-carbonitrile]
– | – | 0.028 µM | CC(C)(O)CCn1cc(-c2cnc(-c3ccc4cc(C#N)cnn34)cc2NC2COC2)nn1 [Compound 11, 7-(5-(1-(3-hydroxy-3-methylbutyl)-1H-1,2,3-triazol-4-yl)-4-(oxetan-3-ylamino)pyridin-2-yl)pyrrolo[1,2-b]pyridazine-3-carbonitrile]
